From ChEMBL document CHEMBL5500346, “Targeting EGFR degradation by autophagosome degraders” (Eur J Med Chem, 2024)
Calls of active or inactive are those of the source.

Columns and labels:
PC-9 [1] = test: Antiproliferative activity against human PC-9 cells incubated for 72 hrs by CCK8 assay; assay type: functional, cell-based; conditions: PC-9, 72 h
[2] = target: T1, Microtubule-associated protein 1 light chain 3 beta/Epidermal growth factor receptor (Homo sapiens, UniProt P00533+Q9GZQ8); test: ATTEC activity at LC3B/EGFR in human HCC827 cells assessed as protein degradation by immunoblot analysis; assay type: cell-based
L02 = test: Antiproliferative activity against human HL7702 cells incubated for 72 hrs by CCK8 assay; assay type: toxicity, cell-based; conditions: l02, 72 h
HCC827 = test: Antiproliferative activity against human HCC827 cells incubated for 72 hrs by CCK8 assay; assay type: functional, cell-based; conditions: HCC827, 72 h
PC-9 [3] = test: Antiproliferative activity against Gefitinib-resistant human PC-9 cells incubated for 72 hrs by CCK8 assay; assay type: functional, cell-based
NCI-H3255 = test: Antiproliferative activity against human NCI-H3255 cells incubated for 72 hrs by CCK8 assay; assay type: functional, cell-based; conditions: NCI-H3255, 72 h
A549 = test: Antiproliferative activity against human A549 cells incubated for 72 hrs by CCK8 assay; assay type: functional, cell-based; conditions: A549, 72 h
NCI-H1975 = test: Antiproliferative activity against human NCI-H1975 cells incubated for 72 hrs by CCK8 assay; assay type: functional, cell-based; conditions: NCI-H1975, 72 h
PC-9 [4] = test: In vivo ATTEC activity at LC3B/EGFR in human PC-9 cells implanted in NOD-SCID mouse assessed as protein degradation at 20 mg/kg, ip measured after 24 hrs by Western blot analysis; assay type: functional, organism-based
[5] = target: T1, Microtubule-associated protein 1 light chain 3 beta/Epidermal growth factor receptor; test: ATTEC activity at LC3B/EGFR in human HCC827 cells assessed as protein degradation at 3.3 uM by immunoblot analysis relative to control; assay type: cell-based
[6] = target: T1, Microtubule-associated protein 1 light chain 3 beta/Epidermal growth factor receptor; test: ATTEC activity at LC3B/EGFR in human HCC827 cells assessed as protein degradation at 0.33 uM by immunoblot analysis relative to control; assay type: cell-based
[7] = target: T1, Microtubule-associated protein 1 light chain 3 beta/Epidermal growth factor receptor; test: ATTEC activity at LC3B/EGFR in human HCC827 cells assessed as protein degradation at 0.11 uM by immunoblot analysis relative to control; assay type: cell-based

COc1cc2ncnc(Nc3ccc(F)c(Cl)c3)c2cc1OCCOCCNC(=O)COc1c(Br)cc(/C=C2\C(=O)Nc3ccc(C)cc32)cc1Br
IC50 (PC-9 [1]): 3.53 µM
DC50 [2]: > 10 µM
Activity (L02): Non-Toxic
IC50 (HCC827): 1.72 µM
Activity (PC-9 [3]): Active
IC50 (NCI-H3255): 2.46 µM
IC50 (A549): > 10 µM
IC50 (NCI-H1975): > 10 µM

COc1cc2ncnc(Nc3ccc(F)c(Cl)c3)c2cc1OCCCN1CCOCC1
Activity (PC-9 [4]): inactive

COc1cc2ncnc(Nc3ccc(F)c(Cl)c3)c2cc1OCCOCCOCCNC(=O)COc1c(Br)cc(/C=C2\C(=O)Nc3ccc(I)cc32)cc1Br
IC50 (PC-9 [1]): 11.1 µM
DC50 [2]: 3.62 µM
Activity (L02): Non-Toxic
IC50 (HCC827): 2.78 µM
IC50 (NCI-H3255): 4.79 µM
IC50 (A549): > 10 µM
IC50 (NCI-H1975): > 10 µM

COc1cc2ncnc(Nc3ccc(F)c(Cl)c3)c2cc1OCCOCCOCCOCCNC(=O)COc1c(Br)cc(/C=C2\C(=O)Nc3ccccc32)cc1Br
IC50 (PC-9 [1]): 1.09 µM
DC50 [2]: > 10 µM
Activity (L02): Non-Toxic
IC50 (HCC827): 1.72 µM
Activity (PC-9 [3]): Active
IC50 (NCI-H3255): 1.43 µM
IC50 (A549): > 10 µM
Emax [5]: 26%
IC50 (NCI-H1975): > 10 µM

COc1cc2ncnc(Nc3ccc(F)c(Cl)c3)c2cc1OCCOCCOCCNC(=O)COc1c(Br)cc(/C=C2\C(=O)Nc3ccc(Cl)cc32)cc1Br
IC50 (PC-9 [1]): 3.81 µM
DC50 [2]: 8.49 µM
Activity (L02): Non-Toxic
IC50 (HCC827): 6.03 µM
Activity (PC-9 [3]): Active
IC50 (NCI-H3255): 2 µM
IC50 (A549): > 10 µM
IC50 (NCI-H1975): > 10 µM

COc1cc2ncnc(Nc3ccc(F)c(Cl)c3)c2cc1OCCOCCOCCNC(=O)COc1c(Br)cc(/C=C2\C(=O)Nc3ccc(Br)cc32)cc1Br
IC50 (PC-9 [1]): 3.12 µM
DC50 [2]: > 10 µM
Activity (L02): Non-Toxic
IC50 (HCC827): 1.06 µM
Activity (PC-9 [3]): Active
IC50 (NCI-H3255): 2.84 µM
IC50 (A549): > 10 µM
IC50 (NCI-H1975): > 10 µM

COc1cc2ncnc(Nc3ccc(F)c(Cl)c3)c2cc1OCCCCCCCCCCNC(=O)COc1c(Br)cc(/C=C2\C(=O)Nc3ccc(I)cc32)cc1Br
IC50 (PC-9 [1]): > 10 µM
DC50 [2]: > 10 µM
Activity (L02): Non-Toxic
IC50 (HCC827): 0.976 µM
IC50 (NCI-H3255): 4.93 µM
IC50 (A549): > 10 µM
IC50 (NCI-H1975): > 10 µM

COc1cc2ncnc(Nc3ccc(F)c(Cl)c3)c2cc1OCCOCCNC(=O)COc1c(Br)cc(/C=C2\C(=O)Nc3ccc(Cl)cc32)cc1Br
IC50 (PC-9 [1]): > 10 µM
DC50 [2]: 0.94 µM
Activity (L02): Non-Toxic
IC50 (HCC827): 5.87 µM
Activity (PC-9 [3]): Active
IC50 (NCI-H3255): 4.58 µM
IC50 (A549): > 10 µM
IC50 (NCI-H1975): > 10 µM

COc1cc2ncnc(Nc3ccc(F)c(Cl)c3)c2cc1OCCOCCOCCNC(=O)COc1c(Br)cc(/C=C2\C(=O)Nc3ccccc32)cc1Br
IC50 (PC-9 [1]): 1.43 µM
DC50 [2]: > 10 µM
Activity (L02): Non-Toxic
IC50 (HCC827): 1.15 µM
Activity (PC-9 [3]): Active
IC50 (NCI-H3255): 0.908 µM
IC50 (A549): > 10 µM
IC50 (NCI-H1975): 3.18 µM

COc1cc2ncnc(Nc3ccc(F)c(Cl)c3)c2cc1OCCCCNC(=O)COc1c(Br)cc(/C=C2\C(=O)Nc3ccc(I)cc32)cc1Br
IC50 (PC-9 [1]): > 10 µM
DC50 [2]: > 10 µM
Activity (L02): Non-Toxic
IC50 (HCC827): 0.21 µM
IC50 (NCI-H3255): 6.04 µM
IC50 (A549): > 10 µM
Emax [5]: 5.8%
IC50 (NCI-H1975): > 10 µM

COc1cc2ncnc(Nc3ccc(F)c(Cl)c3)c2cc1OCCOCCNC(=O)COc1c(Br)cc(/C=C2\C(=O)Nc3ccc(Br)cc32)cc1Br
IC50 (PC-9 [1]): > 10 µM
DC50 [2]: > 10 µM
Activity (L02): Non-Toxic
IC50 (HCC827): > 10 µM
Activity (PC-9 [3]): Active
IC50 (NCI-H3255): 5.18 µM
IC50 (A549): > 10 µM
IC50 (NCI-H1975): > 10 µM

COc1cc2ncnc(Nc3ccc(F)c(Cl)c3)c2cc1OCCOCCOCCOCCNC(=O)COc1c(Br)cc(/C=C2\C(=O)Nc3ccc(Cl)cc32)cc1Br
IC50 (PC-9 [1]): 7.72 µM
DC50 [2]: > 10 µM
Activity (L02): Non-Toxic
IC50 (HCC827): > 10 µM
Emax [6]: 9.1%
IC50 (NCI-H3255): 4.85 µM
IC50 (A549): > 10 µM
IC50 (NCI-H1975): > 10 µM

COc1cc2ncnc(Nc3ccc(F)c(Cl)c3)c2cc1OCCOCCOCCNC(=O)COc1c(Br)cc(/C=C2\C(=O)Nc3ccc(C)cc32)cc1Br
IC50 (PC-9 [1]): 1.36 µM
DC50 [2]: > 10 µM
Activity (L02): Non-Toxic
IC50 (HCC827): 0.862 µM
Activity (PC-9 [3]): Active
IC50 (NCI-H3255): 1.83 µM
IC50 (A549): > 10 µM
IC50 (NCI-H1975): > 10 µM

COc1cc2ncnc(Nc3ccc(F)c(Cl)c3)c2cc1OCCOCCOCCOCCOCCNC(=O)COc1c(Br)cc(/C=C2\C(=O)Nc3ccc(I)cc32)cc1Br
IC50 (PC-9 [1]): 6.76 µM
DC50 [2]: 5.81 µM
Activity (L02): Non-Toxic
IC50 (HCC827): 1.15 µM
IC50 (NCI-H3255): 4.14 µM
IC50 (A549): > 10 µM
IC50 (NCI-H1975): > 10 µM

COc1cc2ncnc(Nc3ccc(F)c(Cl)c3)c2cc1OCCOCCOCCOCCNC(=O)COc1c(Br)cc(/C=C2\C(=O)Nc3ccc(Br)cc32)cc1Br
IC50 (PC-9 [1]): 5.12 µM
DC50 [2]: 2.77 µM
Activity (L02): Non-Toxic
IC50 (HCC827): 3.84 µM
Activity (PC-9 [3]): Active
IC50 (NCI-H3255): 2.54 µM
IC50 (A549): > 10 µM
IC50 (NCI-H1975): > 10 µM

COc1cc2ncnc(Nc3ccc(F)c(Cl)c3)c2cc1OCCCCCCCCNC(=O)COc1c(Br)cc(/C=C2\C(=O)Nc3ccc(I)cc32)cc1Br
IC50 (PC-9 [1]): > 10 µM
DC50 [2]: > 10 µM
Activity (L02): Non-Toxic
IC50 (HCC827): 2.19 µM
Emax [7]: 9.1%
IC50 (NCI-H3255): 6.5 µM
IC50 (A549): > 10 µM
IC50 (NCI-H1975): > 10 µM

COc1cc2ncnc(Nc3ccc(F)c(Cl)c3)c2cc1OCCOCCOCCOCCNC(=O)COc1c(Br)cc(/C=C2\C(=O)Nc3ccc(C)cc32)cc1Br
IC50 (PC-9 [1]): 3.78 µM
DC50 [2]: > 10 µM
Activity (L02): Non-Toxic
IC50 (HCC827): 0.937 µM
Activity (PC-9 [3]): Active
IC50 (NCI-H3255): 1.13 µM
IC50 (A549): > 10 µM
IC50 (NCI-H1975): > 10 µM

COc1cc2ncnc(Nc3ccc(F)c(Cl)c3)c2cc1OCCOCCNC(=O)COc1c(Br)cc(/C=C2\C(=O)Nc3ccc(I)cc32)cc1Br
IC50 (PC-9 [1]): 7.96 µM
DC50 [2]: > 10 µM
Activity (L02): Non-Toxic
IC50 (HCC827): 1.28 µM
Emax [6]: 20.2%
IC50 (NCI-H3255): 3.1 µM
IC50 (A549): > 10 µM
IC50 (NCI-H1975): > 10 µM

COc1cc2ncnc(Nc3ccc(F)c(Cl)c3)c2cc1OCCCCCCNC(=O)COc1c(Br)cc(/C=C2\C(=O)Nc3ccc(I)cc32)cc1Br
IC50 (PC-9 [1]): > 10 µM
DC50 [2]: > 10 µM
Activity (L02): Non-Toxic
IC50 (HCC827): > 10 µM
IC50 (NCI-H3255): > 10 µM
IC50 (A549): > 10 µM
IC50 (NCI-H1975): > 10 µM

COc1cc2ncnc(Nc3ccc(F)c(Cl)c3)c2cc1OCCOCCOCCOCCNC(=O)C(C)Oc1c(Br)cc(/C=C2\C(=O)Nc3ccc(I)cc32)cc1Br (stereo not given)
IC50 (PC-9 [1]): 7.04 µM
DC50 [2]: 6.42 µM
Activity (L02): Non-Toxic
IC50 (HCC827): 0.923 µM
Activity (PC-9 [3]): Active
IC50 (NCI-H3255): 3.41 µM
IC50 (A549): > 10 µM
IC50 (NCI-H1975): > 10 µM
